Laboratory results published in patent publication US10165777B2, “Substituted pyrazolylpyrazole derivative and use of same as herbicide” (KYOYU AGRI CO., LTD., priority 2015, dated 2019).

How the values were obtained:
Assay type in all cases: in vivo
[1] = system: Echinochloa crus-galli; assay: Paddy herbicidal activity test; settings: irrigated pot, treated at 3.5 leaf stage of Echinochloa crus-galli, 30 days
Protocol: (§1) 1. Paddy Herbicidal Activity Test Rice paddy soil was filled into a 1/10000 are pot followed by the addition of suitable amounts of water and chemical fertilizer, kneading, seeding with Echinochloa crus-galli, Monochoria vaginalis and Scirpus juncoides and maintaining in an irrigated state at a water depth of 3 cm. Wettable powders of Target Compound (I) shown in Table 1 prepared in compliance with the preparation examples were diluted with a suitable amount of water, rice plants in the 2.0 leaf stage were transplanted during 3.5 leaf stage of Echinochloa crus-galli, and treated by dropping in chemical in the prescribed amount per 10 are using a pipette. After treating for 30 days in a glass greenhouse at an average atmospheric temperature of 30° C., the herbicidal efficacy thereof was investigated. Evaluation of herbicidal efficacy was carried out by comparing growth inhibition rate (%) with an untreated group, while evaluation of phytotoxicity was carried out by comparing growth inhibition rate (%) with the state of a complete eradication group, and were evaluated at 11 levels indicated below.

[2] = system: Monochoria vaginalis; assay: Paddy herbicidal activity test; settings: irrigated pot, 30 days
Protocol: as §1

[3] = system: Scirpus juncoides; assay: Paddy herbicidal activity test; settings: irrigated pot, 30 days
Protocol: as §1

[4] = system: Oryza sativa; assay: Paddy herbicidal activity test, phytotoxicity to transplanted rice; settings: rice transplanted in 2.0 leaf stage, 30 days
Protocol: as §1

[5] = system: Amaranthus retroflexus; assay: Farming soil treatment test; settings: soil surface spray prior to weed growth, 30 days
Protocol: (§2) Field soil was filled into a 1/6000 are pot followed by seeding with Digitaria ciliaris, Chenopodium album and Amaranthus retroflexus and covering with soil. Wettable powders of compounds of formula (I) shown in Table 1 prepared in compliance with the preparation examples were diluted with water to the prescribed amount of chemical and uniformly sprayed onto each soil surface layer using 100 liters of sprayed water per 10 are prior to weed growth following seeding. After treating for 30 days in a glass greenhouse at an average atmospheric temperature of 30° C., the herbicidal efficacy thereof was investigated. Evaluation of herbicidal efficacy was carried out in the same manner as the above-mentioned Test Example 1.

[6] = system: Chenopodium album; assay: Farming soil treatment test; settings: soil surface spray prior to weed growth, 30 days
Protocol: as §2

[7] = system: Digitaria ciliaris; assay: Farming soil treatment test; settings: soil surface spray prior to weed growth, 30 days
Protocol: as §2

[8] = system: Amaranthus retroflexus; assay: Weed foliar treatment test (Test 3, 1.0 to 2.0 leaf stage); settings: foliar spray at 1.0 to 2.0 leaf stage of Digitaria ciliaris, 3 weeks
Protocol: (§3) Soil was filled into a 1/6000 are pot followed by seeding with Digitaria ciliaris, Chenopodium album and Amaranthus retroflexus, covering with soil, and cultivating in a glass greenhouse at an average atmospheric temperature of 25° C. Wettable powders of Target Compound (I) shown in Table 1 prepared in compliance with the preparation examples were diluted with water to the prescribed amount of chemical and uniformly sprayed onto the weeds using 150 liters of sprayed water per 10 are when Digitaria ciliaris had grown to the 1.0 to 2.0 leaf stage. After treating for 3 weeks in a glass greenhouse at an average atmospheric temperature of 25° C., the herbicidal efficacy thereof was investigated. Evaluation of herbicidal efficacy was carried out in the same manner as the above-mentioned Test Example 1.

[9] = system: Chenopodium album; assay: as above; settings: foliar spray at 1.0 to 2.0 leaf stage of Digitaria ciliaris, 3 weeks
Protocol: as §3

[10] = system: Digitaria ciliaris; assay: as above; settings: foliar spray at 1.0 to 2.0 leaf stage of Digitaria ciliaris, 3 weeks
Protocol: as §3

[11] = system: Digitaria ciliaris; assay: Weed foliar treatment test (Test 4, 4.0 to 5.0 leaf stage); settings: 10 g a.i./10 a; foliar spray at 4.0 to 5.0 leaf stage of Digitaria ciliaris (plant height 10 cm to 15 cm); 20 days
Protocol: (§4) Field soil was filled into a 1/4500 are pot followed by seeding with Digitaria ciliaris and Galinsoga parviflora, covering with soil and cultivating in a glass greenhouse at an average atmospheric temperature of 25° C.
(§5) Wettable powders of Target Compound (I) shown in Table 1 prepared in compliance with the preparation examples were diluted with water to the prescribed amount of chemical and uniformly sprayed onto the weeds using 100 liters of sprayed water per 10 are when Digitaria ciliaris had grown to the 4.0 to 5.0 leaf stage (plant height: 10 cm to 15 cm).
(§6) After treating for 20 days in a glass greenhouse at an average atmospheric temperature of 25° C., the herbicidal efficacy thereof was investigated.
(§7) Evaluation of herbicidal efficacy was carried out in the same manner as the above-mentioned Test Example 1.

[12] = system: Galinsoga parviflora; assay: as above; settings: 10 g a.i./10 a; foliar spray at 4.0 to 5.0 leaf stage of Digitaria ciliaris; 20 days
Protocol: as §4, §5, §6, §7

N#Cc1cnn(-c2nn3c(c2Cl)CCCC3)c1N=CC1CCCCC1 [Compound 1, 1-(3-chloro-4,5,6,7-tetrahydropyrazolo[1,5-a]pyridin-2-yl)-5-(cyclohexylmethyleneamino)pyrazole-4-carbonitrile]
herbicidal efficacy, Echinochloa crus-galli ([1]; 1 g a.i./10 a): 10 (100%) | herbicidal efficacy, Echinochloa crus-galli ([1]; 5 g a.i./10 a): 10 (100%) | herbicidal efficacy, Monochoria vaginalis ([2]; 1 g a.i./10 a): 9 (90% to less than 100%) | herbicidal efficacy, Monochoria vaginalis ([2]; 5 g a.i./10 a): 10 (100%) | herbicidal efficacy, Scirpus juncoides ([3]; 1 g a.i./10 a): 9 (90% to less than 100%) | herbicidal efficacy, Scirpus juncoides ([3]; 5 g a.i./10 a): 10 (100%) | phytotoxicity, Oryza sativa ([4]; 1 g a.i./10 a): 0 (0% to less than 10% (growth inhibition rate)) | phytotoxicity, Oryza sativa ([4]; 5 g a.i./10 a): 0 (0% to less than 10% (growth inhibition rate)) | herbicidal efficacy, Amaranthus retroflexus ([5]; 5 g a.i./10 a): 10 (100%) | herbicidal efficacy, Amaranthus retroflexus ([5]; 10 g a.i./10 a): 10 (100%) | herbicidal efficacy, Chenopodium album ([6]; 5 g a.i./10 a): 9 (90% to less than 100%) | herbicidal efficacy, Chenopodium album ([6]; 10 g a.i./10 a): 10 (100%) | herbicidal efficacy, Digitaria ciliaris ([7]; 5 g a.i./10 a): 9 (90% to less than 100%) | herbicidal efficacy, Digitaria ciliaris ([7]; 10 g a.i./10 a): 9 (90% to less than 100%) | herbicidal efficacy, Amaranthus retroflexus ([8]; 5 g a.i./10 a): 10 (100%) | herbicidal efficacy, Amaranthus retroflexus ([8]; 10 g a.i./10 a): 10 (100%) | herbicidal efficacy, Chenopodium album ([9]; 5 g a.i./10 a): 10 (100%) | herbicidal efficacy, Chenopodium album ([9]; 10 g a.i./10 a): 10 (100%) | herbicidal efficacy, Digitaria ciliaris ([10]; 5 g a.i./10 a): 10 (100%) | herbicidal efficacy, Digitaria ciliaris ([10]; 10 g a.i./10 a): 10 (100%)

N#Cc1cnn(-c2nn3c(c2Cl)CCCC3)c1N=C1CCCC1 [Compound 8]
herbicidal efficacy, Digitaria ciliaris [11]: 10 (100%) | herbicidal efficacy, Galinsoga parviflora [12]: 10 (100%)

N#Cc1cnn(-c2nn3c(c2Cl)CCCC3)c1N=Cc1ccccc1OC(F)F [Compound 12]
herbicidal efficacy, Digitaria ciliaris [11]: 10 (100%) | herbicidal efficacy, Galinsoga parviflora [12]: 10 (100%)

N#Cc1cnn(-c2nn3c(c2Cl)CCCC3)c1N=Cc1ccccc1F [Compound 13]
herbicidal efficacy, Digitaria ciliaris [11]: 10 (100%) | herbicidal efficacy, Galinsoga parviflora [12]: 10 (100%)

N#Cc1cnn(-c2nn3c(c2Cl)CCCC3)c1N=Cc1cccc(Cl)c1 [Compound 17]
herbicidal efficacy, Digitaria ciliaris [11]: 10 (100%) | herbicidal efficacy, Galinsoga parviflora [12]: 10 (100%)

Cc1ccc(C=Nc2c(C#N)cnn2-c2nn3c(c2Cl)CCCC3)cc1 [Compound 18]
herbicidal efficacy, Digitaria ciliaris [11]: 10 (100%) | herbicidal efficacy, Galinsoga parviflora [12]: 10 (100%)

N#Cc1cnn(-c2nn3c(c2Cl)CCCC3)c1N=Cc1ccc(C(F)(F)F)cc1 [Compound 19]
herbicidal efficacy, Digitaria ciliaris [11]: 10 (100%) | herbicidal efficacy, Galinsoga parviflora [12]: 10 (100%)

N#Cc1cnn(-c2nn3c(c2Cl)CCCC3)c1N=Cc1ccc(Cl)cc1 [Compound 20]
herbicidal efficacy, Digitaria ciliaris [11]: 10 (100%) | herbicidal efficacy, Galinsoga parviflora [12]: 10 (100%)

N#Cc1cnn(-c2nn3c(c2Cl)CCCC3)c1N=Cc1ccccn1 [Compound 21]
herbicidal efficacy, Digitaria ciliaris [11]: 10 (100%) | herbicidal efficacy, Galinsoga parviflora [12]: 10 (100%)

N#Cc1cnn(-c2nn3c(c2Cl)CCCC3)c1N=Cc1cccnc1 [Compound 22]
herbicidal efficacy, Echinochloa crus-galli ([1]; 1 g a.i./10 a): 10 (100%) | herbicidal efficacy, Echinochloa crus-galli ([1]; 5 g a.i./10 a): 10 (100%) | herbicidal efficacy, Monochoria vaginalis ([2]; 1 g a.i./10 a): 10 (100%) | herbicidal efficacy, Monochoria vaginalis ([2]; 5 g a.i./10 a): 10 (100%) | herbicidal efficacy, Scirpus juncoides ([3]; 1 g a.i./10 a): 10 (100%) | herbicidal efficacy, Scirpus juncoides ([3]; 5 g a.i./10 a): 10 (100%) | phytotoxicity, Oryza sativa ([4]; 1 g a.i./10 a): 0 (0% to less than 10% (growth inhibition rate)) | phytotoxicity, Oryza sativa ([4]; 5 g a.i./10 a): 1 (10% to less than 20%) | herbicidal efficacy, Amaranthus retroflexus ([5]; 5 g a.i./10 a): 10 (100%) | herbicidal efficacy, Amaranthus retroflexus ([5]; 10 g a.i./10 a): 10 (100%) | herbicidal efficacy, Chenopodium album ([6]; 5 g a.i./10 a): 9 (90% to less than 100%) | herbicidal efficacy, Chenopodium album ([6]; 10 g a.i./10 a): 10 (100%) | herbicidal efficacy, Digitaria ciliaris ([7]; 5 g a.i./10 a): 9 (90% to less than 100%) | herbicidal efficacy, Digitaria ciliaris ([7]; 10 g a.i./10 a): 9 (90% to less than 100%) | herbicidal efficacy, Digitaria ciliaris [11]: 9 (90% to less than 100%) | herbicidal efficacy, Galinsoga parviflora [12]: 10 (100%)

CC(=Nc1c(C#N)cnn1-c1nn2c(c1Cl)CCCC2)c1ccccn1 [Compound 24]
herbicidal efficacy, Digitaria ciliaris [11]: 10 (100%) | herbicidal efficacy, Galinsoga parviflora [12]: 10 (100%)

CC(=Nc1c(C#N)cnn1-c1nn2c(c1Cl)CCCC2)c1cccnc1 [Compound 25]
herbicidal efficacy, Digitaria ciliaris [11]: 10 (100%) | herbicidal efficacy, Galinsoga parviflora [12]: 10 (100%)

CC(=Nc1c(C#N)cnn1-c1nn2c(c1Cl)CCCC2)c1cnccn1 [Compound 27]
herbicidal efficacy, Digitaria ciliaris [11]: 10 (100%) | herbicidal efficacy, Galinsoga parviflora [12]: 10 (100%)

N#Cc1cnn(-c2nn3c(c2Cl)CCCC3)c1N=Cc1ccc[nH]1 [Compound 28]
herbicidal efficacy, Digitaria ciliaris [11]: 10 (100%) | herbicidal efficacy, Galinsoga parviflora [12]: 10 (100%)

CC(=Nc1c(C#N)cnn1-c1nn2c(c1Cl)CCCC2)c1ccc[nH]1 [Compound 29]
herbicidal efficacy, Amaranthus retroflexus ([8]; 5 g a.i./10 a): 9 (90% to less than 100%) | herbicidal efficacy, Amaranthus retroflexus ([8]; 10 g a.i./10 a): 10 (100%) | herbicidal efficacy, Chenopodium album ([9]; 5 g a.i./10 a): 10 (100%) | herbicidal efficacy, Chenopodium album ([9]; 10 g a.i./10 a): 10 (100%) | herbicidal efficacy, Digitaria ciliaris ([10]; 5 g a.i./10 a): 9 (90% to less than 100%) | herbicidal efficacy, Digitaria ciliaris ([10]; 10 g a.i./10 a): 10 (100%) | herbicidal efficacy, Digitaria ciliaris [11]: 10 (100%) | herbicidal efficacy, Galinsoga parviflora [12]: 10 (100%)

N#Cc1cnn(-c2nn3c(c2Cl)CCCC3)c1N=Cc1ccsc1 [Compound 31]
herbicidal efficacy, Digitaria ciliaris [11]: 10 (100%) | herbicidal efficacy, Galinsoga parviflora [12]: 10 (100%)

N#Cc1cnn(-c2nn3c(c2Cl)CCCC3)c1N=Cc1ccoc1 [Compound 32]
herbicidal efficacy, Digitaria ciliaris [11]: 10 (100%) | herbicidal efficacy, Galinsoga parviflora [12]: 10 (100%)

CCOC=Nc1c(C#N)cnn1-c1nn2c(c1Cl)CCCC2 [Compound 34]
herbicidal efficacy, Digitaria ciliaris [11]: 9 (90% to less than 100%) | herbicidal efficacy, Galinsoga parviflora [12]: 10 (100%)

CC(C)OC=Nc1c(C#N)cnn1-c1nn2c(c1Cl)CCCC2 [Compound 36]
herbicidal efficacy, Digitaria ciliaris [11]: 10 (100%) | herbicidal efficacy, Galinsoga parviflora [12]: 10 (100%)

CCCCOC=Nc1c(C#N)cnn1-c1nn2c(c1Cl)CCCC2 [Compound 37]
herbicidal efficacy, Digitaria ciliaris [11]: 10 (100%) | herbicidal efficacy, Galinsoga parviflora [12]: 10 (100%)
